A melting point compilation (Tetko et al.; mined from patent text by program, amines drawn as free bases though some values may be those of a salt)

Row | melting point [°C] | Structure (SMILES)
1 | 190 to 191 | Cc1c(CC(=O)O)c2cc3c(cc2n1C(=O)C=Cc1ccccc1)OCO3
2 | 83 to 85 | C#CCOc1ccc(C(=O)C=Cc2cccs2)c(O)c1
3 | 165 to 166 | O=C(COc1cc(C(=O)O)c(O)c2ccccc12)Nc1ccccc1
4 | 180 to 181 | CC(CSC(=O)c1ccccc1)C(=O)N(CC(=O)O)C1CCC(c2ccccc2)CC1 (configuration not stated)
5 | 138 to 140 | CCCC/C(=C\C=C\C(=O)O)c1ccc(OC)cc1
6 | 134 to 135 | O=C1[C@H]2CCC[C@H]2N(C(=O)CCCCBr)c2ccccc2N1Cc1ccccc1 (relative stereo)
7 | 166 | O=C(O)CCC(=NO)c1ccc(-c2ccc(Cl)c(Cl)c2)cc1
8 | 184 to 186 | CCCCNC(=NC#N)Nc1ccc(C2=NNC(=O)CC2C)cc1 (configuration not stated)
9 | > 260 | COc1ccc(C(=O)Nc2c(Cl)cncc2Cl)c2c1oc1ccc(NCC(=O)O)cc12
10 | 34 to 36 | COC(=O)c1ncccc1Br
11 | 127 to 129 | CC1OC(n2cc(F)c(N)nc2=O)C(O)C1OC(=O)c1ccccc1 (configuration not stated)
12 | 106 | FC(F)(F)c1cccc(-c2ncn(CC3CC3)c2-c2ccncc2)c1
13 | 196 to 197 | C=CCn1c(=O)n(CCC)c(=O)c2[nH]c(C34CC5CC(CC3C5)C4)nc21
14 | 163 to 167 | COCCNc1ccc2ncnc(Nc3cccc(C)c3)c2c1
15 | 74 to 75 | COC(=O)Cc1ccc(OCc2nc(-c3ccccc3)oc2C)cc1
16 | 215 to 218 | CC(=O)n1[nH]c(=O)n(-c2ccccc2)c1=O
17 | 64 to 67 | CCCCCCC(=O)c1ccc2occc2c1
18 | 115 to 116 | O=C(Nc1cc(F)ccc1N1CCCCC1)c1ccncc1
19 | 175 to 178 | CCN(C(=O)OC(C)(C)C)C(Cc1ccccc1)C(=O)NC(CCSC)C(=O)NCC(=O)NC(Cc1ccccc1)C(=O)NC1C2CC3CC(C2)CC1C3 (configuration not stated)
20 | 110 to 111 | CC(=O)OCCn1nc(-c2cc(C(C)(C)C)c(O)c(C(C)(C)C)c2)c2c(C)cc(C)nc21
21 | 250 to 251 | Cn1ncc(C(=O)N2CCCC2)c1C(=O)Nc1cc2nc(-c3ccccc3)nn2cc1F
22 | 229 to 231 | Cn1c(C(F)(F)C(F)(F)F)cc(=O)n(-c2cc(C(=O)O)c(Cl)cc2F)c1=O
23 | 190 to 192 | CCOC(=O)C1=CNc2ccc(C(F)(F)F)cc2CC1c1ccccc1Cl (configuration not stated)
24 | > 300 | Cc1nn(-c2ccccn2)c2ncc(C(=O)NCc3ccccc3)c(O)c12
25 | 84 to 85 | N#CC1(c2ccc(OC(F)F)c(OCC3CC3)c2)CCC(=C2SCCCS2)CC1 (configuration not stated)

Row | melting point [°C] | Structure (SMILES)
26 | 153 to 154 | COc1ccc2c(c1)N(CCNC(C)=O)CC(c1ccccc1)O2 (configuration not stated)
27 | 159 to 161 | Cc1cc(O)c2ccccc2c1OCc1ccccc1
28 | 86 to 88 | O=C(Cc1ncccn1)c1ccc(F)cc1F
29 | > 300 | Nc1nc2c(ncn2CCC(COC(=O)n2ccnc2)COC(=O)n2ccnc2)c(=O)[nH]1
30 | 212 to 213 | COCc1ccoc1C(=O)c1[nH]c2cc(Cl)ccc2c1CC(=O)O
31 | 236 to 237 | Cn1cc(C(=O)NCc2ccc(Cl)cc2)c(=O)c2cc(I)sc21
32 | 100 to 101 | CC(C)OC(=O)C(C)(C)c1cn2nc(Cl)ccc2n1
33 | 295 to 297 | CC(=O)N1CCC2(CC1)C(=O)NC(=O)N2c1ccc(C)cc1
34 | 97 to 98 | CCOC(=O)C=Cc1ccc(CCNS(=O)(=O)c2ccc(Cl)cc2)cc1
35 | 49 | C=C(C)C(=O)OCCCc1cc(CCCOC(=O)C(=C)C)c2oc(=O)c(-c3ccc(OC(=O)C(=C)C)cc3)cc2c1
36 | > 250 | O=C(O)c1ccc2nc(S)[nH]c2c1
37 | 163 to 165 | O=Cc1coc2cc(OCCCN3CCC(c4noc5cc(F)ccc45)CC3)ccc2c1=O
38 | 129 to 131 | CNC(=O)c1cccc(C=O)c1O
39 | 166 | CONC(=O)c1ccccc1NC(=O)Cc1cccc(Br)c1
40 | 45 to 46 | CC(C)(CO)C[C@H]1COC(C)(C)N1C(=O)OC(C)(C)C
41 | 232 to 234 | CSC1=NC2=NC3=C(CN2N1)C(Cc1ccccc1)CNC3=O (configuration not stated)
42 | 232 | O=C(NCCN1CCC(Nc2nc3ccccc3n2Cc2ccc(F)cc2)CC1)c1cc2ccccc2[nH]1
43 | 130 to 132 | CCCCCS(=O)(=O)NC(=O)OCc1ccc(OCCOC)cc1Oc1ncc(C(F)(F)F)cc1Cl
44 | 190 to 194 | CC12CCC3c4ccc(O)cc4C(=O)C(Sc4ccc(Br)cc4)C3C1CCC2O (configuration not stated)
45 | 142 to 145 | C#CCN1C(=O)C(C)Oc2cc(F)c(N)cc21 (configuration not stated)
46 | 83 | COC(=O)CNc1cccc(I)c1
47 | 231 to 234 | CC(C)(C)C(NC(=O)c1ccc(Cl)cc1)Nc1c(Nc2cccnc2F)c(=O)c1=O (configuration not stated)
48 | 135 to 137 | O=c1oc2ccccc2n1CCN1CCc2c([nH]c3ccccc23)C1
49 | 172 | CCOC(=O)C=CN1C(C)(C)CC(N(C=O)CCCCCCN(C=O)C2CC(C)(C)N(C=CC(=O)OCC)C(C)(C)C2)CC1(C)C
50 | 169 to 170 | CCC1(CCCCN2CCN(c3cccc4c3OCCO4)CC2)C(=O)Nc2ccccc21 (configuration not stated)

Row | melting point [°C] | Structure (SMILES)
51 | 128 to 132 | Nc1nc2c(s1)CCN(CC=Cc1cccc(F)c1)CC2
52 | 128 to 130 | CCC1OC(=O)CC(O)C(C)C(OC2OC(C)CC(N(C)C)C2O)C(CC=O)CC(C)C(=O)C=CC2(C)OC2C1C (configuration not stated)
53 | 34 to 35 | CC(C)CSc1ccnc(OS(C)(=O)=O)c1
54 | 222 to 224 | Clc1nc(NCc2cccc(I)c2)c2[nH]cnc2n1
55 | 225 to 226 | COc1ccc(NS(=O)(=O)c2cc3cc(Cl)ccc3oc2=O)cc1O
56 | 120 to 121 | COc1cc2c(c(OC(C)=O)c1)C1CCC3(C)C(OC(C)=O)CCC3C1CC2 (configuration not stated)
57 | 120 to 121 | CCCN1CC(c2ccc(S(C)(=O)=O)cc2)=C(c2ccc(F)cc2)C1=O
58 | 110 to 125 | CCC12CCC3=C(CCc4cc(OC)ccc43)C1CCC2=O (configuration not stated)
59 | 186 to 187 | O=C(Nc1ccc(CN2CCCC2)cc1)C1=Cc2cc(-c3ccccc3)ccc2CC1
60 | 92 | COc1ccc(NCCOc2ccc3ccccc3c2)cc1
61 | 58 to 60 | CC(Cl)(Cl)C1(Cl)N=C(Cl)C(Cl)=N1
62 | 45 to 50 | Cc1ccc(-c2ccc3ccccc3c2)n1CC[C@H]1C[C@H](O)CC(=O)O1 (relative stereo)
63 | 110 | CCOC(=O)Nc1ccc(Cl)nc1
64 | 226 to 228 | Cc1c2c(nn1CCO)c(N)nc1ccccc12
65 | 139 to 141 | O=C1N(Cc2ccc(C(F)(F)F)o2)c2ccc(F)cc2C12COc1cc3c(cc12)OCO3 (configuration not stated)
66 | 88 to 89 | COc1ccc(COc2cccc(C(C)O)c2OCc2ccc(OC)cc2)cc1 (configuration not stated)
67 | 207 | COc1cc(Nc2nccc(-c3nc(C)c(C)s3)n2)cc(OC)c1OC
68 | 209 to 211 | O=S1(=O)N=CN(C2CCCCCC2)c2cc(Cl)ccc21
69 | 215 to 219 | Cc1cc(-c2ccc(S(C)(=O)=O)cc2)n(-c2ccc(Br)cc2)c1C
70 | 57 to 58 | Cc1oc(C2(C)CCCCC2)nc1CC#N
71 | 107 to 109 | Cc1c(C(=O)C23CC4CC(CC(C4)C2)C3)oc2cc(F)ccc12
72 | 250 | Cc1cc(-c2cnn3c(C(F)(F)F)cc(-c4ccc(C(F)(F)F)c(F)c4)nc23)ccn1
73 | 132 to 134 | c1ccc(C2OC3(CCOCC3)c3ccccc32)cc1 (configuration not stated)
74 | 202 to 210 | N#CC1C(=O)NC(=O)C(C#N)C12CCCCC2 (configuration not stated)
75 | 84 to 85 | OCc1ccc(OCc2ccccc2)cc1OCc1ccccc1

Row | melting point [°C] | Structure (SMILES)
76 | 168 to 169 | O=S(=O)(NCCc1ccc(Cc2nnn[nH]2)cc1)c1ccc(Cl)cc1
77 | 139 to 150 | O=C(O)C1CCSc2ccc(Cl)cc21 (configuration not stated)
78 | 80 to 82 | Cc1cc(=O)c2ccc(OCC(O)CNC(C)C)cc2o1 (configuration not stated)
79 | 257 to 259 | CC(=O)Nc1c2c(cc3c1CCC3)CCC2
80 | 103 to 105 | CCCc1cc(Cl)c2oc(C(=O)c3ccc(OC)cc3)c(C)c2c1O
81 | 121 | C=CCOC(=O)c1cccc2c1N=C(c1ccccc1Cl)CC2=O
82 | 79 to 81 | CC(C)(C)OC(=O)N1CCC[C@H](COc2cccnc2Br)C1
83 | > 270 | NC(Cc1ccc(O)cc1)CN1CCN(c2ccccc2)CC1 (configuration not stated)
84 | 155 to 157 | O=C(Nc1ccc(-n2nc(C(F)(F)F)cc2C(F)(F)F)cc1)c1ccccc1Cl
85 | 72 | CCCC(=O)C1=C(O)CC(c2cccnc2)CC1=O (configuration not stated)
86 | 127 to 128 | NCCOc1c(Cl)ccc2c1c1cccc3c1n2C(c1ccccc1)CO3 (configuration not stated)
87 | 133 | COC=C(C(=O)OC)c1scnc1COc1ccccc1
88 | 235 to 237 | O=c1cc(CO)n2c(n1)COc1ccccc1-2
89 | 165 to 167 | CCCCCCCNC(=O)Nc1ccc(O)cc1C(=O)NCC1CCN(C(c2ccccc2)c2ccccc2)CC1
90 | 135 to 138 | CC(=O)NCCC1=C(C(C)C)Cc2ccc3nc(C)oc3c21
91 | 293 to 295 | O=C1CCC(N2Cc3cc(CNC(=O)c4cccc(Cl)c4)ccc3C2=O)C(=O)N1 (configuration not stated)
92 | 68 | CCCC[C@H]1CC[C@H](c2ccc(-c3ccc(CCc4ccc(F)cc4)cc3)c(F)c2)CC1
93 | 53 to 55 | C=CCOC(=O)CC(=O)CCN1C(=O)c2ccccc2C1=O
94 | 138 | Nc1cccc(C(=O)NS(=O)(=O)c2ccccc2)c1
95 | 90 to 96 | Nc1cc(Cl)cc(Cl)c1C(=O)NCc1ccccc1
96 | 132 | CC(=O)OC1COC(Oc2ccc(C(=S)c3ccc(C)cc3)cc2)C(OC(C)=O)C1OC(C)=O (configuration not stated)
97 | 188 to 191 | OC1c2cc(OCc3ccc4cc(F)ccc4n3)ccc2OCC1Cc1cncnc1 (configuration not stated)

Row | Structure (SMILES) | melting point [°C]
98 | CC(Cc1c[nH]c2ccccc12)C1CCNCC1 (configuration not stated) | 150
99 | C[C@H]1[C@H](O)C2(CC2)C(=O)N1c1ccc(C#N)c(Cl)c1 | 169 to 172
100 | CC(C)(C)[Si](C)(C)O[C@H]1CCNC1=O | 48 to 49
101 | Cc1nc(CN(C)C)n(-c2ccc(Cl)cc2C(=O)c2ccccc2Cl)c1CO | 164 to 166
102 | Clc1nc(Br)cnc1N1CCNCC1 | 114 to 115
